Measurements published in PubChem BioAssay AID1963446 (Molecular Pharmacology Branch, DTP, NCI, 2024).
“And” between values parts separate entries of the source, which are not always exact repeats. Identical values can stand only once.

Tested on: 993429-296-R-J1-PDC complex spheroid growth, percent test/control
Test: Anticancer human tumor 993429-296-R-J1-PDC patient-derived uterine sarcoma cell line growth inhibition [Asc]
Settings: for viability, T/C: stronger effect = lower value
Protocol: Multicellular complex tumor spheroid response to apoptosis pathway targeting inhibitors Alrizomadlin, Pelcitoclax, and Dasminapant in combination with a variety of drugs and investigational agents in selected tumor cell lines
The MDM2 inhibitor alrizomadlin, the Bcl-2/Bcl-xL inhibitor pelcitoclax, and the IAPs inhibitor dasminapant were evaluated both individually and in combination with standard of care and investigational anticancer small molecules within a complex spheroid model of solid tumors. . Complex spheroids include a stromal component modeled by human endothelial cells (HUVEC) and fibroblasts modeled by human mesenchymal stem cells (MSCs). The concentration ranges selected for each drug and investigational agent were based upon clinically achievable concentrations if the clinical Cmax of the agent was known.
Compounds. The drugs and investigational agents: alrizomadlin (APG-115; NSC831270), pelcitoclax (APG-1252; NSC835773), dasminapant (APG-1387;NSC834197), TAK-243 (NSC785004), copanlisib (NSC809693), olaparib (NSC753686), talazoparib (NSC767125), cobimetinib (NSC 768068), eltanexor (KPT-8602, NSC 794443), abemaciclib (NSC 768073), sotorasib (NSC818433), adagrasib (NSC 831453), MRTX-1133 (NSC 836407), Iadademestat (ORY1001, NSC 806812), and RMC-4630 (NSC839698), were obtained from the NCI Developmental Therapeutics Program Chemical Repository. The FDA-approved anticancer drug set is available from the Developmental Therapeutics Program at https://dtp.cancer.gov/organization/dscb/obtaining/available plates.htm. […] The stock solutions were prepared in dimethyl sulfoxide (DMSO, Sigma-Aldrich, St. Louis, MO, cat. D2650) at 800-fold the tested concentration and stored at -70 degrees C prior to their use. All drugs and investigational agents were tested over a range starting from a high concentration at or near the clinical Cmax and decreasing in half-log increments. If the clinical Cmax for an agent had not been determined, the highest concentration tested was 10 microM.
The patient-derived cancer (PDC) cell lines include five colon adenocarcinomas: 186277-243-T-J2-PDC, 616215-338-R-J1-PDC, 439559-082-T-J2-PDC, 463943-066-T-J2-PDC, and 519858-162-T-J1-PDC; three pancreatic carcinomas: 323965-272-R-J2-PDC, 521955-158-R6-J3-PDC, and 521955-158-R2-J5-PDC; two uterine sarcomas: 327498-152-R-J2-PDC and 993429-296-R-J1-PDC; two rhabdomyosarcomas: 755483-174-R-J1-PDC and 772245-204-R-J1-PDC; two soft tissue sarcomas: 126254-015-R-J1-PDC and 494315-158-R-J1-PDC; two malignant fibrous histiocytomas: 317291-083-R-J1-PDC and 596521-263-R-J1-PDC; two breast carcinomas: 171881-019-R-J1-PDC and 885512-296-R-J2-PDC; and one ovarian carcinoma: 6556581-035-R-J-PDC were obtained from the NCI PDMR, (https://pdmr.cancer.gov). The established cell lines HSSY-2 synovial sarcoma (RRID:CVCL 8719), SYO-1 synovial sarcoma (RRID:CVCL_7146), MPNST malignant peripheral neural sheath tumor were obtained from the Sloan Kettering Institute. The following established cell lines were purchased from the American Type Culture Collection (ATCC, Manassas, VA), Sor the received from the NCI repository:, PANC-1 pancreatic carcinoma (CRL-1469, RRID:CVCL_0480), OVCAR-5 ovarian carcinoma (RRID:CVCL_1628), OVCAR-8 ovarian carcinoma (RRID:CVCL_1629), , MCF-7 breast carcinoma (CRL-12584, RRID:CVCL_0031), MDA-MB-231 breast carcinoma (CRL-12532, RRID:CVCL_0062), NCI-H1876 small cell lung carcinoma (CRL-5902, RRID:CVCL_1503), NCI-H510A small cell lung carcinoma (HTB-184, RRID:CVCL_1565), NCI-H1417 (CRL-5869, RRID:CVCL_1469), and NCI-H196 small cell lung carcinoma (CRL-5823, RRID:CVCL_1509). Dr. Peter Houghton (Greehey Children's Cancer Research Institute, University of Texas Health Science Center, San Antonio, TX) provided Rh-18 rhabdomyosarcoma (RRID:CVCL_1659). Pooled donor human umbilical vein endothelial cells (HUVEC, Lonza, cat. CC-2519) and human mesenchymal stem cells (hMSC, Lonza, cat. PT-2501) were purchased from Lonza (Walkersville, MD).
Cell Culture. […]
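Note: spheroids exposed to compounds for seven days.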

O=C(c1ccc(F)c(F)c1Nc1ccc(I)cc1F)N1CC(O)([C@@H]2CCCCN2)C1 was tested, and the viability, T/C (compound 0.00316 µM) was 94.3% and 75.1% and 94.5%, the viability, T/C (compound 0.01 µM) was 86% and 69.7% and 83.4% and the viability, T/C (compound 0.0316 µM) was 62.6% and 54.8% and 79.4%. For the same compound, the viability, T/C (compound 0.1 µM) was 41% and 34.7% and 70.9%, the viability, T/C (compound 0.316 µM) was 14.8% and 10.7% and 39.1% and the viability, T/C (compound 1 µM) was 1.26% and 1.77% and 3.59%. For the same compound, the IC50 (curve of compound) was 61.4 nM and 42.6 nM and 212 nM.
Work on O=C(c1cc(Cc2n[nH]c(=O)c3ccccc23)ccc1F)N1CCN(C(=O)C2CC2)CC1 + CCN1C(C(=O)NC23CCC(C(=O)O)(CC2)CC3)C(c2cccc(Cl)c2F)C2(C(=O)Nc3cc(Cl)ccc32)C12CCCCC2 yielded an IC50 (curve of first compound, second compound 0.03 µM) of 6360 nM, an IC50 (curve of first compound, second compound 0.0949 µM) of 4840 nM and an IC50 (curve of first compound, second compound 0.3 µM) of 6870 nM. For the same compound, the IC50 (curve of first compound, second compound 0.949 µM) was 4900 nM, the IC50 (curve of first compound, second compound 3 µM) was 3040 nM and the viability, T/C (second compound 0.03 µM, first compound 0.0316 µM) was 87.8%. For the same compound, the viability, T/C (second compound 0.03 µM, first compound 0.1 µM) was 104%, the viability, T/C (second compound 0.03 µM, first compound 0.316 µM) was 98% and the viability, T/C (second compound 0.03 µM, first compound 1 µM) was 100%. The viability, T/C (second compound 0.03 µM, first compound 3.16 µM) was 66.3%, the viability, T/C (second compound 0.03 µM, first compound 10 µM) was 39.5% and the viability, T/C (second compound 0.0949 µM, first compound 0.0316 µM) was 109%. It also gave a viability, T/C (second compound 0.0949 µM, first compound 0.1 µM) of 106%, a viability, T/C (second compound 0.0949 µM, first compound 0.316 µM) of 87.9% and a viability, T/C (second compound 0.0949 µM, first compound 1 µM) of 113%. It also gave a viability, T/C (second compound 0.0949 µM, first compound 3.16 µM) of 61.9%, a viability, T/C (second compound 0.0949 µM, first compound 10 µM) of 29.6% and a viability, T/C (second compound 0.3 µM, first compound 0.0316 µM) of 92%. It also gave a viability, T/C (second compound 0.3 µM, first compound 0.1 µM) of 100%, a viability, T/C (second compound 0.3 µM, first compound 0.316 µM) of 99.7% and a viability, T/C (second compound 0.3 µM, first compound 1 µM) of 78.6%. The viability, T/C (second compound 0.3 µM, first compound 3.16 µM) was 76.1%, the viability, T/C (second compound 0.3 µM, first compound 10 µM) was 38.5% and the viability, T/C (second compound 0.949 µM, first compound 0.0316 µM) was 100%. For the same compound, the viability, T/C (second compound 0.949 µM, first compound 0.1 µM) was 113%, the viability, T/C (second compound 0.949 µM, first compound 0.316 µM) was 88.8% and the viability, T/C (second compound 0.949 µM, first compound 1 µM) was 81%. For the same compound, the viability, T/C (second compound 0.949 µM, first compound 3.16 µM) was 62.2%, the viability, T/C (second compound 0.949 µM, first compound 10 µM) was 32.1% and the viability, T/C (second compound 3 µM, first compound 0.0316 µM) was 96.6%. The viability, T/C (second compound 3 µM, first compound 0.1 µM) was 90.3%, the viability, T/C (second compound 3 µM, first compound 0.316 µM) was 78.4% and the viability, T/C (second compound 3 µM, first compound 1 µM) was 83.1%. The viability, T/C (second compound 3 µM, first compound 3.16 µM) was 48.3% and the viability, T/C (second compound 3 µM, first compound 10 µM) was 33.1%.
Cc1c(S(C)(=O)=O)c(-c2cc(F)cc(N3CCN(c4ccc(NS(=O)(=O)c5ccc(NC(CCN6CCC(C(=O)OCCCP(=O)(O)O)CC6)CSc6ccccc6)c(S(=O)(=O)C(F)(F)F)c5)cc4)CC3)c2)c(-c2ccc(Cl)cc2)n1C(C)C (stereo not given) was tested, and the viability, T/C (compound 0.316 µM) was 60.7% [middle of 14 runs] and the viability, T/C (compound 3.16 µM) was 49.6% [middle of 14 runs].
C=C(F)C(=O)N1CCN(c2nc(OCC3CCCN3C)nc3c2CCN(c2cccc4cccc(Cl)c24)C3)CC1CC#N (stereo not given) + Cc1c(S(C)(=O)=O)c(-c2cc(F)cc(N3CCN(c4ccc(NS(=O)(=O)c5ccc(NC(CCN6CCC(C(=O)OCCCP(=O)(O)O)CC6)CSc6ccccc6)c(S(=O)(=O)C(F)(F)F)c5)cc4)CC3)c2)c(-c2ccc(Cl)cc2)n1C(C)C was tested, and the IC50 (curve of first compound, second compound 0.1 µM) was 494 nM, the IC50 (curve of first compound, second compound 0.316 µM) was 460 nM and the IC50 (curve of first compound, second compound 1 µM) was 321 nM. The IC50 (curve of first compound, second compound 3.16 µM) was under 31.6 nM, the IC50 (curve of first compound, second compound 10 µM) was 553 nM and the viability, T/C (second compound 0.1 µM, first compound 0.0316 µM) was 57.1%. It also gave a viability, T/C (second compound 0.1 µM, first compound 0.1 µM) of 85%, a viability, T/C (second compound 0.1 µM, first compound 0.316 µM) of 69.2% and a viability, T/C (second compound 0.1 µM, first compound 1 µM) of 17.5%. The viability, T/C (second compound 0.1 µM, first compound 3.16 µM) was 0.55%, the viability, T/C (second compound 0.1 µM, first compound 10 µM) was 0.23% and the viability, T/C (second compound 0.316 µM, first compound 0.0316 µM) was 71.8%. It also gave a viability, T/C (second compound 0.316 µM, first compound 0.1 µM) of 77.1%, a viability, T/C (second compound 0.316 µM, first compound 0.316 µM) of 70.6% and a viability, T/C (second compound 0.316 µM, first compound 1 µM) of 7.35%. It also gave a viability, T/C (second compound 0.316 µM, first compound 3.16 µM) of 0.21%, a viability, T/C (second compound 0.316 µM, first compound 10 µM) of 0.19% and a viability, T/C (second compound 1 µM, first compound 0.0316 µM) of 49.5%. For the same compound, the viability, T/C (second compound 1 µM, first compound 0.1 µM) was 60.8%, the viability, T/C (second compound 1 µM, first compound 0.316 µM) was 50.5% and the viability, T/C (second compound 1 µM, first compound 1 µM) was 5.26%. It also gave a viability, T/C (second compound 1 µM, first compound 3.16 µM) of 0.3%, a viability, T/C (second compound 1 µM, first compound 10 µM) of 0.14% and a viability, T/C (second compound 3.16 µM, first compound 0.0316 µM) of 46.9%. The viability, T/C (second compound 3.16 µM, first compound 0.1 µM) was 49.6%, the viability, T/C (second compound 3.16 µM, first compound 0.316 µM) was 35.9% and the viability, T/C (second compound 3.16 µM, first compound 1 µM) was 7.98%. For the same compound, the viability, T/C (second compound 3.16 µM, first compound 3.16 µM) was 0.08%, the viability, T/C (second compound 3.16 µM, first compound 10 µM) was 0.17% and the viability, T/C (second compound 10 µM, first compound 0.0316 µM) was 78.9%. For the same compound, the viability, T/C (second compound 10 µM, first compound 0.1 µM) was 108%, the viability, T/C (second compound 10 µM, first compound 0.316 µM) was 87.3% and the viability, T/C (second compound 10 µM, first compound 1 µM) was 10.4%. For the same compound, the viability, T/C (second compound 10 µM, first compound 3.16 µM) was 0.43% and the viability, T/C (second compound 10 µM, first compound 10 µM) was 0.3%.
With C#Cc1c(F)ccc2cc(O)cc(-c3ncc4c(N5CC6CCC(C5)N6)nc(OCC56CCCN5CC(F)C6)nc4c3F)c12 (stereo not given) the viability, T/C (compound 0.0316 µM) was 102% and 88% and 97.9%, the viability, T/C (compound 0.1 µM) was 108% and 101% and 89.1% and the viability, T/C (compound 0.316 µM) was 86% and 86.7% and 88.8%. For the same compound, the viability, T/C (compound 1 µM) was 93.3% and 82.2% and 100%, the viability, T/C (compound 3.16 µM) was 91.9% and 81.4% and 106% and the IC50 (curve of compound) was > 10000 nM and 5020 nM and 5680 nM.
